Measurements as given in article PMC2774621, “Homogenous Fluorescent Assays for Characterizing Small-Molecule Activators of AMP-Activated Protein Kinase (AMPK)” (Current Chemical Genomics, 2008).

What was measured:
[1] = system: partially purified rat AMPK; set-up: method as in PMID 8185610; settings: cited from earlier work
[2] = molecular target: T1, AMPK α2β1γ1 (Homo sapiens, UniProt P54619+P54646); assay: Radiometric kinase assay (SAMS peptide, 32P-ATP); type: biochemical
T1 construct: made in house; host or cells: Sf9 insect cells (baculovirus)
Method: (§1) Kinase reactions were performed at room temperature in 50 mM HEPES pH 7.5, 0.01% BRIJ-35, 10 mM MgCl2, and 1 mM EGTA in a 30 µL assay volume in 96-well plates. For the inhibition experiments, a 2-fold dilution series of inhibitor stock solutions was first prepared in 100% DMSO at 100-fold concentration of inhibitor to be used in the assay. Prior to the assay, 4 µL of each inhibitor concentration was further diluted to 100 µL in assay buffer to prepare a working stock of inhibitor in 4% DMSO at 4-fold the final assay concentration. For the activation experiments, activators were prepared in 100% H2O at 4-fold the concentration to be tested in the assay. Assays were performed as follows: 7.5 µL of the inhibitor or activator working stock was added to a 17.5 µL solution of assay buffer, substrate and [^32P]-ATP (0.5 µCi/well), followed by 5 µL of enzyme to start the assay. All assays were performed in triplicate. The final concentration of SAMS peptide substrate in the reaction was 200 µM. AMPK α1β1γ1 was used at 334 ng/mL (1.8 nM) in the inhibition experiments and 83.3 ng/mL (0.44 nM) in the activation experiments, at an ATP concentration of 35 µM. AMPK α2β1γ1 was used at 1670 ng/mL (8.9 nM) in the inhibition experiments and 267 ng/mL (1.4 nM) in the activation experiments, at an ATP concentration of 65 µM. After 10 minutes, 20 µL of the reaction was spotted onto a p81 filter. The filters were washed three times in 0.5% phosphoric acid, and twice in distilled water before being counted in Beckman Coulter Ready Safe liquid scintillation cocktail using a Beckman Coulter LS6500 Multipurpose Scintillation Counter. Scintillation Counter output (cpm) was used to calculate specific activity (nmole / (min•mg)).
(§2) Data analysis and curve-fitting was performed using GraphPad Prism software (GraphPad Software, Inc, San Diego CA).

[3] = system: partially purified human AMPK; set-up: method as in PMID 8185610; settings: cited from earlier work
[4] = molecular target: T2, AMPK α1β1γ1 and α2β1γ1 (Homo sapiens, UniProt P54619+P54646+Q9Y478); assay: Summary statements across all assay formats (radiometric, TR-FRET, FRET, CHEF); type: biochemical; settings: α2β1γ1 isoform
T2 construct: made in house; host or cells: Sf9 insect cells (baculovirus)
Method: as §1
(§3) Kinase reactions were performed in a 10 µL assay volume at room temperature in 384-well low volume plates (Corning model 3676) using the same assay buffer as the radiometric assay. Activators and inhibitors were prepared as described for the radiometric assay. Assays were performed as follows: 2.5 µL of the inhibitor or activator working stock was added to a 5 µL solution of kinase and substrate, followed by 2.5 µL of ATP to start the assay. Assays were performed in quadruplicate. The final concentration of fluorescein-labeled CREBtide peptide substrate (derived from residues 123-136 of CREB protein) in the reaction was 400 nM. AMPK α1β1γ1 was used at 600 ng/mL (3.1 nM) in the inhibition experiments and 200 ng/mL (1.1 nM) in the activation experiments, at an ATP concentration of 50 µM. AMPK α2β1γ1 was used at 5 µg/mL (26.5 nM) in the inhibition experiments and 600 ng/mL (3.2 nM) in the activation experiments, at an ATP concentration of 150 µM. After one hour, a 10 µL solution of EDTA and terbium labeled phospho-specific antibody in 20 mM Tris, pH 7.5 and 0.01% NP-40 was added to a final well volume of 20 µL, a final antibody concentration of 1 nM, and a final EDTA concentration of 10 mM. After a 30 minute incubation at room temperature the assay plate was read on a BMG Pherastar plate reader using the LanthaScreen™ filter module. The TR-FRET ratio was calculated as the intensity of the acceptor signal divided by the intensity of the donor signal.
(§4) Kinase reactions were performed in a 10 µL assay volume at room temperature in 384-well low volume plates (Corning model 3676) using the same assay buffer as the radiometric assay. Inhibitors and activators were prepared as described for the radiometric assays. Assays were performed as follows: 2.5 µL of the inhibitor or activator working stock was added to a 5 µL solution of kinase and substrate, followed by 2.5 µL of ATP to start the assay. All assays were performed in quadruplicate. The final concentration of Z’-LYTE™ S/T23 peptide substrate in the reaction was 2 µM. AMPK α1β1γ1 was used at 79 ng/mL (0.42 nM) in the inhibition experiments and 41 ng/mL (0.22 nM) in the activation experiments, at an ATP concentration of 50 µM. […]

[5] = molecular target: T3, AMPK α1β1γ1 and α2β1γ1 (Homo sapiens, UniProt P54619+Q13131+Q9Y478); assay: as above; type: biochemical; settings: α1β1γ1 isoform, any formats
T3 construct: made in house; host or cells: Sf9 insect cells (baculovirus)
Method: as §1, §3, §4

[6] = molecular target: AMPK α1β1γ1 and α2β1γ1 (Homo sapiens, UniProt P54619+P54646); assay: as above; type: biochemical; settings: read-out: half-maximal stimulatory concentration; all assay formats
Method: as §1, §3, §4

[7] = molecular target: T1, AMPK α2β1γ1; assay: TR-FRET activity assay (LanthaScreen, fluorescein-CREBtide); type: biochemical; settings: TR-FRET, ATP 150 µM, substrate 400 nM; read-out: Activator EC50
Method: (§5) Activators and inhibitors were prepared as described for the radiometric assay. Assays were performed as follows: 2.5 µL of the inhibitor or activator working stock was added to a 5 µL solution of kinase and substrate, followed by 2.5 µL of ATP to start the assay. Assays were performed in quadruplicate. […] After one hour, a 10 µL solution of EDTA and terbium labeled phospho-specific antibody in 20 mM Tris, pH 7.5 and 0.01% NP-40 was added to a final well volume of 20 µL, a final antibody concentration of 1 nM, and a final EDTA concentration of 10 mM. After a 30 minute incubation at room temperature the assay plate was read on a BMG Pherastar plate reader using the LanthaScreen™ filter module. The TR-FRET ratio was calculated as the intensity of the acceptor signal divided by the intensity of the donor signal.
as §2

[8] = molecular target: T4, AMPK α1β1γ1 (Homo sapiens, UniProt P54619+Q13131); assay: as above; type: biochemical; settings: ATP 50 µM, substrate 400 nM, read-out: Activator EC50
T4 construct: made in house; host or cells: Sf9 insect cells (baculovirus)
Method: as §5, §2

[9] = system: rat-liver or recombinant AMPK (α1β1γ1); set-up: method as in PMID 16753576; settings: read-out: EC50 of AMPK activation; cited from earlier work

T1 sequence (P54646 whole entry): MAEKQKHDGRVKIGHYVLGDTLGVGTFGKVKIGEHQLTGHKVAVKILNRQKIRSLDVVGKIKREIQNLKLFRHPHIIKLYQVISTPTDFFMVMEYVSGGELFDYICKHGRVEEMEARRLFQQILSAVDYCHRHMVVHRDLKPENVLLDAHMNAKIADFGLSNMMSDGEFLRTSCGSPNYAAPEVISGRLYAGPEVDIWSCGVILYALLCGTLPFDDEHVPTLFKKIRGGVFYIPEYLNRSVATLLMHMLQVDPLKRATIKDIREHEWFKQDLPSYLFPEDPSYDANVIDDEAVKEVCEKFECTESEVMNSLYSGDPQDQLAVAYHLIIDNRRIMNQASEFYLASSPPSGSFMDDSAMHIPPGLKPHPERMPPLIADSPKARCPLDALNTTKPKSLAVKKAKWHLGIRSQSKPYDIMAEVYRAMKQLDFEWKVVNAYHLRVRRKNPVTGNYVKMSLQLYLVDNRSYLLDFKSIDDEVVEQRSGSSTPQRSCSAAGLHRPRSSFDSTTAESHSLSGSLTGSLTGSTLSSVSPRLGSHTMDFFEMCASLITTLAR
T1 sequence (Q9Y478 whole entry partner): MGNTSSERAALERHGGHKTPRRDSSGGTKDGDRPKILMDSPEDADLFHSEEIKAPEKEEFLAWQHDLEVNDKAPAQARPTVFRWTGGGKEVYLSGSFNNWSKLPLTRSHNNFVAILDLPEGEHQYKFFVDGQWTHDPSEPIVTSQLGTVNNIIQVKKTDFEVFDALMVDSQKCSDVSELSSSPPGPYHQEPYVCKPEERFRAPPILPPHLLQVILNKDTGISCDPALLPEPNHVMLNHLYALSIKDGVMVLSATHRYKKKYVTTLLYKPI
T1 sequence (P54619 whole entry): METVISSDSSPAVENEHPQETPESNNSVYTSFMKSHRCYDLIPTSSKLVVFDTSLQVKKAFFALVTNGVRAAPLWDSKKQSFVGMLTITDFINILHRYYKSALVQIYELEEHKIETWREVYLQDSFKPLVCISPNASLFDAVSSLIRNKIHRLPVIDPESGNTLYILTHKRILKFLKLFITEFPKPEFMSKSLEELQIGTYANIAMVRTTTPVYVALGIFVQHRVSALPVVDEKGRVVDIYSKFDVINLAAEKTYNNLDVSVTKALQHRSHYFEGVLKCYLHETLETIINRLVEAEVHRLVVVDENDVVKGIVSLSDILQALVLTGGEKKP
T3 sequence (Q13131 whole entry, canonical isoform): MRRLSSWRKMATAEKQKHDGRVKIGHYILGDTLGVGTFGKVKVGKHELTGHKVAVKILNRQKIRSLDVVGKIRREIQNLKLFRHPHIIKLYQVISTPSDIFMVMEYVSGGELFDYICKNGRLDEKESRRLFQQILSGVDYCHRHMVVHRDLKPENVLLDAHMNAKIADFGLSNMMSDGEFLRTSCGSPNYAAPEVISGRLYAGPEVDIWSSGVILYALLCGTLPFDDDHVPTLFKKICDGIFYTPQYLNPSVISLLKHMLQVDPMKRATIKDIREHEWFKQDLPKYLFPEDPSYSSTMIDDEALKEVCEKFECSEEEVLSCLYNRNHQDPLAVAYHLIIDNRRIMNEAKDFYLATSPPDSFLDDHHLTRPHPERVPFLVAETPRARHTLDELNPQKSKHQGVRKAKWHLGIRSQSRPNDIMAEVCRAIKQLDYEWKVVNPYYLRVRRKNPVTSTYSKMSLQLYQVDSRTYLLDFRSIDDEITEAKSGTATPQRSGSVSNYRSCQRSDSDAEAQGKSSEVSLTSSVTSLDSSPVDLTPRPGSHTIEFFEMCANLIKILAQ
T3 sequence (Q9Y478 whole entry, canonical isoform): as the sequence (Q9Y478 whole entry partner) above
T3 sequence (P54619 whole entry, canonical isoform): as the sequence (P54619 whole entry) above
T4 sequence (Q13131 whole entry): as the sequence (Q13131 whole entry, canonical isoform) above
T4 sequence (Q9Y478 whole entry partner): as the sequence (Q9Y478 whole entry partner) above
T4 sequence (P54619 whole entry): as the sequence (P54619 whole entry) above
T2 sequence (P54646 whole entry, canonical isoform): as the sequence (P54646 whole entry) above
T2 sequence (Q9Y478 whole entry, canonical isoform): as the sequence (Q9Y478 whole entry partner) above
T2 sequence (P54619 whole entry, canonical isoform): as the sequence (P54619 whole entry) above
Chain of AMPK α1β1γ1 and α2β1γ1 (Homo sapiens, UniProt P54619+P54646) (P54619 whole entry): as above
Chain of AMPK α1β1γ1 and α2β1γ1 (Homo sapiens, UniProt P54619+P54646) (P54646 whole entry): as the sequence (P54646 whole entry) above
Chain of AMPK α1β1γ1 and α2β1γ1 (Homo sapiens, UniProt P54619+P54646) (Q9Y478 whole entry partner): as the sequence (Q9Y478 whole entry partner) above

| Structure (SMILES) | fold stimulation (maximal extent of activation) ([1]; partially purified rat AMPK) | EC50 ([1]; rat AMPK, read-out: half-maximal stimulatory concentration) | EC50 [2] | Max. fold-activation ([2]; radiometric, ATP 65 µM, SAMS 200 µM) | fold stimulation (maximal extent of activation) [3] | maximal extent of activation [4] | activation before inhibiting kinase activity to below basal levels [5] | EC50 [6] | EC50 [7] | EC50 [8] | EC50 [9] |
| --- | --- | --- | --- | --- | --- | --- | --- | --- | --- | --- | --- |
| Nc1ncnc2c1ncn2[C@@H]1O[C@H](COP(N)(=O)O)[C@@H](O)[C@H]1O [APR, adenosine 5′-monophosphoramidate] | 1.5 fold | 1.9 µM | 194 µM | 1.9 fold | 2.25 fold | 2 to 3 fold | negligible activation | > 50 µM | 43 µM | 722 µM | – |
| N#Cc1c(O)c2c(-c3ccc(-c4ccccc4O)cc3)csc2[nH]c1=O [A-769662] | – | – | – | – | – | – | – | – | – | – | ~0.8 µM |
